Results published in ChEMBL document CHEMBL3044929, “Insecticidal activity of sesquiterpenes skeleton synthesized by the conventional Robinson annulations reaction on Drosophila melanogaster” (2013).

How the values were obtained:
Drosophila melanogaster [1] = assay: Insecticidal activity against first-instar larval stage of Drosophila melanogaster fed with artificial diet containing compound assessed as mortality at 18.3 umol/ml measured after 120 hr; type: functional
Drosophila melanogaster [2] = assay: Insecticidal activity against first-instar larval stage of Drosophila melanogaster fed with artificial diet containing compound assessed as mortality at 8.3 umol/ml measured after 144 hr; type: functional
Drosophila melanogaster [3] = assay: Insecticidal activity against first-instar larval stage of Drosophila melanogaster fed with artificial diet containing compound assessed as mortality at 8.3 umol/ml measured after 72 hr (reference value: 0%); type: functional
Drosophila melanogaster [4] = assay: Insecticidal activity against first-instar larval stage of Drosophila melanogaster fed with artificial diet containing compound assessed as mortality at 37.6 umol/ml measured after 48 hr (reference value: 0%); type: functional
Drosophila melanogaster [5] = assay: Insecticidal activity against first-instar larval stage of Drosophila melanogaster fed with artificial diet containing compound assessed as mortality at 8.3 umol/ml measured after 120 hr; type: functional
Drosophila melanogaster [6] = assay: Insecticidal activity against first-instar larval stage of Drosophila melanogaster fed with artificial diet containing compound assessed as mortality at 37.6 umol/ml measured after 72 hr (reference value: 3.33 +/-0.33%); type: functional
Drosophila melanogaster [7] = assay: Insecticidal activity against first-instar larval stage of Drosophila melanogaster fed with artificial diet containing compound assessed as mortality at 37.6 umol/ml measured after 144 hr; type: functional
Drosophila melanogaster [8] = assay: Insecticidal activity against first-instar larval stage of Drosophila melanogaster fed with artificial diet containing compound assessed as mortality at 8.3 umol/ml measured after 96 hr; type: functional
Drosophila melanogaster [9] = assay: Insecticidal activity against first-instar larval stage of Drosophila melanogaster fed with artificial diet containing compound assessed as mortality at 37.6 umol/ml measured after 24 hr (reference value: 0%); type: functional
Drosophila melanogaster [10] = assay: Insecticidal activity against first-instar larval stage of Drosophila melanogaster fed with artificial diet containing compound assessed as mortality at 18.3 umol/ml measured after 72 hr (reference value: 0%); type: functional
Drosophila melanogaster [11] = assay: Insecticidal activity against first-instar larval stage of Drosophila melanogaster fed with artificial diet containing compound assessed as mortality at 18.3 umol/ml measured after 144 hr; type: functional
Drosophila melanogaster [12] = assay: Insecticidal activity against first-instar larval stage of Drosophila melanogaster fed with artificial diet containing compound assessed as mortality at 37.6 umol/ml measured after 120 hr; type: functional
Drosophila melanogaster [13] = assay: Insecticidal activity against first-instar larval stage of Drosophila melanogaster fed with artificial diet containing compound assessed as mortality at 37.6 umol/ml measured after 96 hr; type: functional
Drosophila melanogaster [14] = assay: Insecticidal activity against first-instar larval stage of Drosophila melanogaster fed with artificial diet containing compound assessed as mortality at 8.3 umol/ml measured after 24 hr (reference value: 0%); type: functional
Drosophila melanogaster [15] = assay: Insecticidal activity against first-instar larval stage of Drosophila melanogaster fed with artificial diet containing compound assessed as mortality at 18.3 umol/ml measured after 48 hr (reference value: 0%); type: functional
Drosophila melanogaster [16] = assay: Insecticidal activity against first-instar larval stage of Drosophila melanogaster fed with artificial diet containing compound assessed as mortality at 8.3 umol/ml measured after 48 hr (reference value: 0%); type: functional
Drosophila melanogaster [17] = assay: Insecticidal activity against first-instar larval stage of Drosophila melanogaster fed with artificial diet containing compound assessed as mortality at 18.3 umol/ml measured after 96 hr; type: functional
Drosophila melanogaster [18] = assay: Insecticidal activity against first-instar larval stage of Drosophila melanogaster fed with artificial diet containing compound assessed as mortality at 18.3 umol/ml measured after 24 hr (reference value: 0%); type: functional
Drosophila melanogaster [19] = assay: Insecticidal activity against first-instar larval stage of Drosophila melanogaster fed with artificial diet containing compound assessed as mortality measured after 24 hr; type: functional; conditions: read-out: LD50 (the source's name)
[20] = biological target: Acetylcholinesterase (Spodoptera litura) (UniProt C5IU80); assay: Inhibition of acetylcholinesterase in Spodoptera frugiperda (fall armyworm) at 15 ppm
Sequence of Acetylcholinesterase (Spodoptera litura) (C5IU80 as listed by the source): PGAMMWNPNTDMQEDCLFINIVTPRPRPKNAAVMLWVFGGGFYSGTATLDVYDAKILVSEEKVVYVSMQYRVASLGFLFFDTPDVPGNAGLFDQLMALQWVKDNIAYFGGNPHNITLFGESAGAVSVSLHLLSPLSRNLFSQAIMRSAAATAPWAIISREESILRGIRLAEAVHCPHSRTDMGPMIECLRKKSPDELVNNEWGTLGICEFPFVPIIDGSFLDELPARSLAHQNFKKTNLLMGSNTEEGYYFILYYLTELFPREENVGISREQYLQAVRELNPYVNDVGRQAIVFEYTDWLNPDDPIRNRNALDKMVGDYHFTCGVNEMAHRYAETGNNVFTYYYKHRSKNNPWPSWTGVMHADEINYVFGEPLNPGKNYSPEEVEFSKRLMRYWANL

Spodoptera frugiperda = assay: Insecticidal activity against Spodoptera frugiperda (fall armyworm) larvae assessed as mortality at 25 ppm; type: functional
Drosophila melanogaster [21] = assay: Insecticidal activity against first-instar larval stage of Drosophila melanogaster fed with artificial diet containing compound assessed as mortality measured after 72 hr; type: functional; conditions: read-out: LD50 (the source's name)

Row | Structure (SMILES) | mortality (Drosophila melanogaster [1]) [%] | mortality (Drosophila melanogaster [2]) [%] | mortality (Drosophila melanogaster [3]) [%] | mortality (Drosophila melanogaster [4]) [%] | mortality (Drosophila melanogaster [5]) [%] | mortality (Drosophila melanogaster [6]) [%] | mortality (Drosophila melanogaster [7]) [%] | mortality (Drosophila melanogaster [8]) [%] | mortality (Drosophila melanogaster [9]) [%] | mortality (Drosophila melanogaster [10]) [%] | mortality (Drosophila melanogaster [11]) [%] | mortality (Drosophila melanogaster [12]) [%] | mortality (Drosophila melanogaster [13]) [%] | mortality (Drosophila melanogaster [14]) [%] | mortality (Drosophila melanogaster [15]) [%] | mortality (Drosophila melanogaster [16]) [%] | mortality (Drosophila melanogaster [17]) [%] | mortality (Drosophila melanogaster [18]) [%] | further results
1 | C=C(C)[C@@H]1CC[C@]2(C)CCC(=O)C[C@]2(O)C1 [5-HYDROXY-14-NOREUDESM-11-EN-3-ONE] | 20 | 16.6 | 6.7 | 13.3 | 16.6 | 16.6 | 23.3 | 6.6 | 13 | 13.3 | 20 | 23.3 | 23.3 | 0 | 6.7 | 6.7 | 20 | 3.3 | 
2 | C=C(C)[C@@H]1CC[C@@]2(C)CCC(O)C(C)=C2C1 (mixture of isomers) |  |  | 100 | 96 |  | 100 |  |  | 90 | 100 |  |  |  | 50 | 86.7 | 70 |  | 70 | LC50 (Drosophila melanogaster [19]): 8.78 mM
3 | CC1=C2C[C@H](C(C)(O)CO)CC[C@@]2(C)CCC1=O (stereo not given in full) | 23 | 10 | 10 | 20 | 10 | 20 | 23 | 10 | 20 | 0 | 23 | 23 | 23 | 10 | 10 | 10 | 23 | 10 | 
4 | C=C(C)[C@@H]1CC[C@@]2(C)CC[C@@H](O)C(C)=C2C1 [3ALPHA-HYDROXY-CYPERONE] | 3.3 | 0 | 0 | 6.7 | 0 | 6.7 | 10 | 0 | 0 | 3.3 | 6.6 | 10 | 10 | 0 | 0 | 0 | 3.3 | 0 | 
5 | CC(=O)OC[C@H]1C[C@@H](OC(C)=O)[C@@H](OC(C)=O)[C@@]2(C)[C@H](OC(=O)c3ccco3)[C@@H](OC(C)=O)[C@@H]3[C@H](OC(C)=O)[C@]12OC3(C)C |  |  |  |  |  |  |  |  |  |  |  |  |  |  |  |  |  |  | inhibition [20]: 100%; mortality at 25 ppm (Spodoptera frugiperda): 100%
6 | C=C(C)[C@@H]1CC[C@]2(C)CCC(=O)C(C)=C2C1 [(-)-10-EPI-ALPHA-CYPERONE] |  |  | 0 | 0.11 |  | 0.11 |  |  | 0 | 0 |  |  |  | 0 | 0 | 0 |  | 0 | 
7 | C=C(C)[C@@H]1CC[C@]2(C)CCC(=O)[C@H](C)[C@]2(O)C1 [5ALPHA-HYDROXY-14-EUDESM-11-EN-3-ONE] | 20 | 23.3 | 0 | 0 | 16.7 | 33.3 | 40 | 16.7 | 0 | 13.3 | 26.7 | 36.6 | 36.6 | 0 | 0 | 0 | 20 | 0 | LC50 (Drosophila melanogaster [21]): 42.6 mM
8 | C=C(C)[C@@H]1CC[C@@]2(C)CCC(=O)C(C)=C2C1 [ALPHA-CYPERONE] |  |  | 100 | 100 |  | 100 |  |  | 96.7 | 100 |  |  |  | 70 | 100 | 76.6 |  | 83 | LC50 (Drosophila melanogaster [19]): 4.99 mM
9 | CC(=O)OC[C@H]1C[C@@H](OC(C)=O)[C@@H](OC(C)=O)[C@@]2(C)[C@H](OC(=O)c3ccccc3)[C@@H](OC(C)=O)[C@@H]3[C@H](OC(C)=O)[C@]12OC3(C)C |  |  |  |  |  |  |  |  |  |  |  |  |  |  |  |  |  |  | mortality at 25 ppm (Spodoptera frugiperda): 100%
10 | C=C(C)[C@@H]1CC[C@@]2(C)CC[C@H](O)C(C)=C2C1 [3BETA-HYDROXY-CYPERONE] |  |  | 50 | 96 |  | 100 |  |  | 80 | 73.3 |  |  |  | 20 | 73.3 | 50 |  | 36.7 | LC50 (Drosophila melanogaster [21]): 9.36 mM
